# Assay results from patent publication US20250114345A1, “COMPOUNDS AND COMPOSITIONS AS CBP/P300 DEGRADERS AND USES THEREOF” (Oncopia Therapeutics, Inc. d/b/a/ SK Life Science Labs, priority 2023, published 2025).
# Molecular target: T1, p300 (Homo sapiens, UniProt Q09472)
# T1 construct: host or cells: A549 P300 HiBit cells
# Assay: P300 degradation, HiBit technology in A549 P300 HiBit cells (2 h)
# Assay type: cell-based
# Conditions: 2 hrs post treatment; for Dmax: A549, A549 P300 HiBit cells; for DC50: A549 P300 HiBit cells
# How it was run: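 Degradation potency and Dmax came from luminescence after 10 min room-temperature lysis with HiBit detection buffer. Beforehand, HiBit-tagged A549 lines received serial compound dilutions (10 mM DMSO stocks) at 37 °C, 5% CO2. CBP cells were read at 24 h, p300 cells at 2 h.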
# T1 sequence (Q09472 whole entry): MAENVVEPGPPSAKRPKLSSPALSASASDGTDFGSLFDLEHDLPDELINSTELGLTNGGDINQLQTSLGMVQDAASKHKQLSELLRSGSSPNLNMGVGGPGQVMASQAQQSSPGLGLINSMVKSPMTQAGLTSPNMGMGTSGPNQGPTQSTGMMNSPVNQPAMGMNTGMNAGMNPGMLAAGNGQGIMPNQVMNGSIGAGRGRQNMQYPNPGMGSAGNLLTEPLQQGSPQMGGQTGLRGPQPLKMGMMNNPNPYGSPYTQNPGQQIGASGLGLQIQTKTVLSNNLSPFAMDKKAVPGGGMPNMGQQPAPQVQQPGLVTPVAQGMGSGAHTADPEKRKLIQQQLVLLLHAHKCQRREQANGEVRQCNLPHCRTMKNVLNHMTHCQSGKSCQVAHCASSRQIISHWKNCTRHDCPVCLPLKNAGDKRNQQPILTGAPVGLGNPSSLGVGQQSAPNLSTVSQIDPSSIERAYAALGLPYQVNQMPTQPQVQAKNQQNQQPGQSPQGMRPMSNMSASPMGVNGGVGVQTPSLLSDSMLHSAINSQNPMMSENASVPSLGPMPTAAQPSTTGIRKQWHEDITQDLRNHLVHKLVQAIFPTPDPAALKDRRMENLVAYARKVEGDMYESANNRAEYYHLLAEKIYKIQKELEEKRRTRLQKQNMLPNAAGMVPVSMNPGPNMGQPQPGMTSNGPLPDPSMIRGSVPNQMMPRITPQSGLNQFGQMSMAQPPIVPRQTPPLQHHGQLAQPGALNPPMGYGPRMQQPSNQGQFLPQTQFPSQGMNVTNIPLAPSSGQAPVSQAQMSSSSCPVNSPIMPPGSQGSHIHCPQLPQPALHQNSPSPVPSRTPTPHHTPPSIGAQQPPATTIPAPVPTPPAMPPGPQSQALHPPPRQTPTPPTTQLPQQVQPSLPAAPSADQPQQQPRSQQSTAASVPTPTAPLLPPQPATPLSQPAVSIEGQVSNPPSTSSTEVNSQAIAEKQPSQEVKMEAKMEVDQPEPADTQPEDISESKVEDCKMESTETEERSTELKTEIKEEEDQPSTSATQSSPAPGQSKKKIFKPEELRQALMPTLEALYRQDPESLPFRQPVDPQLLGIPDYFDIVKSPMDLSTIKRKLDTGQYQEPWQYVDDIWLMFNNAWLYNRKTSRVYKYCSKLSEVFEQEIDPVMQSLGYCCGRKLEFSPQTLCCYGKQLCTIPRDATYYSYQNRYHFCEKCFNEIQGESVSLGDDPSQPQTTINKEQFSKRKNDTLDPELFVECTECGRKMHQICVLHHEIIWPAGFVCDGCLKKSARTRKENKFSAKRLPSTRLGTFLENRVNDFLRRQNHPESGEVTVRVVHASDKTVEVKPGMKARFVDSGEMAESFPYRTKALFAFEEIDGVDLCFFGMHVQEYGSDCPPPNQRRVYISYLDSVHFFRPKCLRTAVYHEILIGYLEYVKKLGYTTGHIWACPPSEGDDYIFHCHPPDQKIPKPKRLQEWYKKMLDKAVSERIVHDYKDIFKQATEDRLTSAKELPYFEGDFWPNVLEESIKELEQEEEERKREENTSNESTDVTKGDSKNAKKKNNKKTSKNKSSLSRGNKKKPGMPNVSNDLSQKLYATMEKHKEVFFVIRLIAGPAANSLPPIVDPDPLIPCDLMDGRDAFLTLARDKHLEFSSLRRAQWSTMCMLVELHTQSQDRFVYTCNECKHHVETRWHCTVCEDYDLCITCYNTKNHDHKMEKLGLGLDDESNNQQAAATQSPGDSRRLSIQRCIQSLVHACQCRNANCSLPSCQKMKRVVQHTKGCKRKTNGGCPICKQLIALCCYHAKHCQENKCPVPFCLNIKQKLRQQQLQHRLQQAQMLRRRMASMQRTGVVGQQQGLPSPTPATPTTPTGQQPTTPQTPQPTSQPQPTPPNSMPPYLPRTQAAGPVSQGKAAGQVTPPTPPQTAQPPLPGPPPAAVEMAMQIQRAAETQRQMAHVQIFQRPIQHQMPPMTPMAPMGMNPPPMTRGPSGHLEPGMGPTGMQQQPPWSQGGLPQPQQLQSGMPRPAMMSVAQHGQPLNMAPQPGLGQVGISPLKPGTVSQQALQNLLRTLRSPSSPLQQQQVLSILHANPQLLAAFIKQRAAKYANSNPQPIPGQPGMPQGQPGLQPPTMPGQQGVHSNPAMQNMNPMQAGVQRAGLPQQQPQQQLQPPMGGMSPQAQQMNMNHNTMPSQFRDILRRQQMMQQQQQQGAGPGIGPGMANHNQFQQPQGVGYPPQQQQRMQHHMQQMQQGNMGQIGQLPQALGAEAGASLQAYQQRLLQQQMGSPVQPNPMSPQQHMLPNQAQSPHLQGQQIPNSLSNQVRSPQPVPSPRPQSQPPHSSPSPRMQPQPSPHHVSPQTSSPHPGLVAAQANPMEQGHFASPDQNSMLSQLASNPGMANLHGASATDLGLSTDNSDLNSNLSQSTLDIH
SMILES,Dmax,DC50
"CCn1c(=O)n(C)c2ccc(N3CCOc4nc(-c5ccc(C(=O)NCC#Cc6ccc7occ(C8CCC(=O)NC8=O)c7c6)nc5)ncc43)cc21 (stereo not shown) [Example A143, N-(3-(3-(2,6-dioxo-piperidin-3-yl)benzofuran-5-yl)prop-2-yn-1-yl)-5-(5-(3-ethyl-1-methyl-2-oxo-2,3-dihydro-1H-benzo[d]imidazol-5-yl)-6,7-dihydro-5H-pyrimido[4,5-b] [1,4]oxazin-2-yl)picolinamide]",20 to 39%,1 to 9.9 nM
"Cc1cc(-c2ccc(N(C)c3cc(C(C)C)c4c(c3)n(C)c(=O)n4C)cc2Cl)cnc1C(=O)NCC#Cc1cccc(NC2CCC(=O)NC2=O)c1 (stereo not shown) [Example A44, 5-(2-chloro-4-((7-isopropyl-1,3-dimethyl-2-oxo-2,3-dihydro-1H-benzo[d]imidazol-5-yl)(methyl)amino)phenyl)-N-(3-(3-((2,6-dioxopiperidin-3-yl)amino)phenyl)prop-2-yn-1-yl)-3-methylpicolinamide]",60 to 79%,100 to 999 nM
"CC(C)c1cc(-c2cccc3cc(-c4ccc(C(=O)NCC#Cc5cnc6c(c5)N(C5CCC(=O)NC5=O)CC6)nc4)ncc23)cc2c1n(C)c(=O)n2C (stereo not shown) [Example A249, N-(3-(1-(2,6-dioxo-piperidin-3-yl)-2,3-dihydro-1H-pyrrolo [3,2-b]pyridin-6-yl)prop-2-yn-1-yl)-5-(8-(7-isopropyl-1,3-dimethyl-2-oxo-2,3-dihydro-1H-benzo[d]imidazol-5-yl)isoquinolin-3-yl)picolinamide]",20 to 39%,10 to 99 nM
"Cc1cc2c(N3CCCc4cc(-c5ccc(C(=O)NCC#Cc6ccc7occ(C8CCC(=O)NC8=O)c7c6)nc5)c(C(F)F)cc43)cccc2n(C)c1=O (stereo not shown) [Example B22, 5-(7-(difluoromethyl)-1′,3′-dimethyl-2′-oxo-1′,2′,3,4-tetrahydro-2H-[1,5′-biquinolin]-6-yl)-N-(3-(3-(2,6-dioxopiperidin-3-yl)benzofuran-5-yl)prop-2-yn-1-yl)picolinamide]",> 80%,1 to 9.9 nM
"Cc1cc2c(N3CCCc4nc(-c5ccc(C(=O)NCC#Cc6cc7c(C8CCC(=O)NC8=O)cccc7o6)nc5)ncc43)cc(Cl)cc2n(C)c1=O (stereo not shown) [Example B126, 5-(5-(7-chloro-1,3-dimethyl-2-oxo-1,2-dihydroquinolin-5-yl)-5,6,7,8-tetrahydropyrido [3,2-d]pyrimidin-2-yl)-N-(3-(4-(2,6-dioxo-piperidin-3-yl)benzofuran-2-yl)prop-2-yn-1-yl)picolinamide]",> 80%,1 to 9.9 nM
"CC(C)c1cc(-c2cccc3cc(-c4ccc(C(=O)NCC#Cc5ccc6cnn(C7CCC(=O)NC7=O)c6n5)nc4)ncc23)cc2c1n(C)c(=O)n2C (stereo not shown) [Example A12, N-(3-(1-(2,6-Dioxopiperidin-3-yl)-1H-pyrazolo[3,4-b]pyridin-6-yl)prop-2-yn-1-yl)-5-(8-(7-isopropyl-1,3-dimethyl-2-oxo-2,3-dihydro-1H-benzo[d]imidazol-5-yl)isoquinolin-3-yl)picolinamide]",20 to 39%,10 to 99 nM
"CC(C)c1cc(-c2cccc3cc(-c4ccc(C(=O)NCC#Cc5cnc6ccn(C7CCC(=O)NC7=O)c6c5)nc4)ncc23)cc2c1n(C)c(=O)n2C (stereo not shown) [Example A13, N-(3-(1-(2,6-Dioxopiperidin-3-yl)-1H-pyrrolo[3,2-b]pyridin-6-yl)prop-2-yn-1-yl)-5-(8-(7-isopropyl-1,3-dimethyl-2-oxo-2,3-dihydro-1H-benzo[d]imidazol-5-yl)isoquinolin-3-yl)picolinamide]",> 80%,1 to 9.9 nM
"Cc1cc2c(N3CCCc4nc(-c5ccc(C(=O)NCC#Cc6ccc7occ(C8CCC(=O)NC8=O)c7c6)nc5)ncc43)nc(C(C)C)cc2n(C)c1=O (stereo not shown) [Example B130, N-(3-(3-(2,6-dioxopiperidin-3-yl)benzofuran-5-yl)prop-2-yn-1-yl)-5-(5-(7-isopropyl-1,3-dimethyl-2-oxo-1,2-dihydro-1,6-naphthyridin-5-yl)-5,6,7,8-tetrahydropyrido[3,2-d]pyrimidin-2-yl)picolinamide]",60 to 79%,1 to 9.9 nM
